Data reported in patent publication US10681909B2, “Herbicidal triazoles” (FMC Corporation, priority 2014, dated 2020).

Assays:
barnyardgrass [1] = test: Test A preemergence; type: in vivo, Echinochloa crus-galli; conditions: Echinochloa crus-galli, pre-emergence, 240 h, 0 to 100 scale (0 no effect, 100 complete control), read-out: Plant response rating, Barnyardgrass; for pest or weed control at 125 g/ha: 125 g ai/ha
Procedure, shortened: (§1)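 Plant seeds in loam soil blended with sand, then apply test chemical preemergence as a directed soil spray; in parallel, spray potted seedlings (one- to two-leaf, 2 to 10 cm) postemergence. Both treatments use a non-phytotoxic solvent mixture with surfactant.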

barnyardgrass [2] = test: Test A postemergence; type: in vivo, Echinochloa crus-galli; conditions: Echinochloa crus-galli, post-emergence, 240 h, 0 to 100 scale (0 no effect, 100 complete control), approx. 10 d, read-out: Plant response rating, Barnyardgrass; for pest or weed control at 125 g/ha: 125 g ai/ha
Procedure, shortened: as §1

foxtail, giant [3] = test: Test A postemergence; type: in vivo, Setaria faberii; conditions: Setaria faberi, post-emergence, 240 h, 0 to 100 scale (0 no effect, 100 complete control), approx. 10 d, read-out: Plant response rating, Foxtail, Giant; for pest or weed control at 125 g/ha: 125 g ai/ha
Procedure, shortened: as §1

pigweed = test: Test A postemergence; type: in vivo, Amaranthus retroflexus; conditions: Amaranthus retroflexus, post-emergence, 240 h, 0 to 100 scale (0 no effect, 100 complete control), approx. 10 d, read-out: Plant response rating, Pigweed; for pest or weed control at 125 g/ha: 125 g ai/ha
Procedure, shortened: as §1

wheat = test: Test A postemergence; type: in vivo, Triticum aestivum; conditions: Triticum aestivum, post-emergence, 240 h, 0 to 100 scale (0 no effect, 100 complete control), approx. 10 d, read-out: Plant response rating, Wheat; for plant injury at 125 g/ha: 125 g ai/ha
Procedure, shortened: as §1

corn [4] = test: Test A postemergence; type: in vivo, Zea mays; conditions: Zea mays, post-emergence, 240 h, 0 to 100 scale (0 no effect, 100 complete control), approx. 10 d; for Corn plant response rating (crop injury, 0 = no effect, 100 = complete kill) at 125 g/ha: 125 g ai/ha
Procedure, shortened: as §1

ryegrass, Italian = test: Test C postemergence; type: in vivo, Lolium multiflorum
Source text: (§2) Seeds of plant species selected from blackgrass (Alopecurus myosuroides), ryegrass, Italian (Italian ryegrass, Lolium multiflorum), wheat (winter wheat, Triticum aestivum), galium (catchweed bedstraw, Galium aparine), corn (Zea mays), crabgrass, large (large crabgrass, Digitaria sanguinalis), foxtail, giant, (giant foxtail, Setaria faberii), johnsongrass (Sorghum halepense), lambsquarters (Chenopodium album), morningglory (Ipomoea coccinea), nutsedge, yellow (yellow nutsedge, Cyperus esculentus), pigweed (Amaranthus retroflexus), ragweed (common ragweed, Ambrosia elatior), soybean (Glycine max), barnyardgrass (Echinochloa crus-galli), oilseed rape (Brassica napus), waterhemp (common waterhemp, Amaranthus rudis), and velvetleaf (Abutilon theophrasti) were planted into a blend of loam soil and sand and treated preemergence with test chemicals formulated in a non-phytotoxic solvent mixture which included a surfactant. At the same time, plants selected from these crop and weed species and also chickweed (common chickweed, Stellaria media), oat, wild (wild oat, Avena fatua), and kochia (Kochia scoparia), were planted in pots containing Sunshine Redi-Earth® planting medium comprising spaghnum peat moss, vermiculite, starter nutrients and dolomitic limestone and treated with postemergence applications of test chemicals formulated in the same manner. Plants ranged in height from 2 to 18 cm (1- to 4-leaf stage) for postemergence treatments. […] A dash (-) response means no test result.

corn [5] = test: Test C postemergence; type: in vivo, Zea mays
Source text: as §2

crabgrass, large = test: Test C postemergence; type: in vivo, Digitaria sanguinalis
Source text: as §2

foxtail, giant [6] = test: Test C postemergence; type: in vivo, Setaria faberii
Source text: as §2

morningglory = test: Test C postemergence; type: in vivo, Ipomoea coccinea
Source text: as §2

nutsedge, yellow = test: Test C postemergence; type: in vivo, Cyperus esculentus
Source text: as §2

ragweed = test: Test C postemergence; type: in vivo, Ambrosia elatior
Source text: as §2

barnyardgrass [7] = test: Test C postemergence; type: in vivo, Echinochloa crus-galli
Source text: as §2

oilseed rape = test: Test C postemergence; type: in vivo, Brassica napus
Source text: as §2

waterhemp = test: Test C postemergence; type: in vivo, Amaranthus rudis
Source text: as §2

velvetleaf = test: Test C postemergence; type: in vivo, Abutilon theophrasti
Source text: as §2

kochia = test: Test C postemergence; type: in vivo, Kochia scoparia
Source text: as §2

Cn1nc(-c2ccc(F)cc2)nc1Oc1cccc(C(F)(F)F)c1 [Compound 5, 3-(4-fluorophenyl)-1-methyl-5-[3-(trifluoromethyl)phenoxy]-1H-1,2,4-triazole]
pest or weed control at 125 g/ha (barnyardgrass [1]): 0%
pest or weed control at 500 g/ha (barnyardgrass [1]; 500 g ai/ha, approx. 10 d): 20%
pest or weed control at 125 g/ha (barnyardgrass [2]): 10%
pest or weed control at 500 g/ha (barnyardgrass [2]; 500 g ai/ha): 30%
pest or weed control at 125 g/ha (foxtail, giant [3]): 20%
pest or weed control at 500 g/ha (foxtail, giant [3]; 500 g ai/ha): 70%
pest or weed control at 125 g/ha (pigweed): 90%
pest or weed control at 500 g/ha (pigweed; 500 g ai/ha): 100%
plant injury at 125 g/ha (wheat): 0%
plant injury at 500 g/ha (wheat; 500 g ai/ha): 10%
Corn plant response rating (crop injury, 0 = no effect, 100 = complete kill) at 125 g/ha (corn [4]): 10%
Corn plant response rating (crop injury, 0 = no effect, 100 = complete kill) at 500 g/ha (corn [4]; 500 g ai/ha): 20%

CCOc1nc(-c2ccc(C(F)(F)F)cc2)nn1Cc1ccnc(C(F)(F)F)c1 [Compound 35, 4-[[5-ethoxy-3-[4-(trifluoromethyl)phenyl]-1H-1,2,4-triazole-1-yl]methyl]-2-(trifluoromethyl)pyridine]
pest or weed control at 31 g/ha (barnyardgrass [1]; 31 g ai/ha): 80%
pest or weed control at 125 g/ha (barnyardgrass [1]): 100%
pest or weed control at 31 g/ha (barnyardgrass [2]; 31 g ai/ha): 80%
pest or weed control at 125 g/ha (barnyardgrass [2]): 90%
pest or weed control at 31 g/ha (foxtail, giant [3]; 31 g ai/ha): 80%
pest or weed control at 125 g/ha (foxtail, giant [3]): 90%
pest or weed control at 31 g/ha (pigweed; 31 g ai/ha): 100%
pest or weed control at 125 g/ha (pigweed): 100%
plant injury at 31 g/ha (wheat; 31 g ai/ha): 40%
plant injury at 125 g/ha (wheat): 70%
Corn plant response rating (crop injury, 0 = no effect, 100 = complete kill) at 31 g/ha (corn [4]; 31 g ai/ha): 40%
Corn plant response rating (crop injury, 0 = no effect, 100 = complete kill) at 125 g/ha (corn [4]): 80%
Plant response rating (scale of 0 to 100 where 0 is no effect and 100 is complete control) (ryegrass, Italian; 31 g ai/ha): 30
Plant response rating (scale of 0 to 100 where 0 is no effect and 100 is complete control) (ryegrass, Italian; 62 g ai/ha): 55
Plant response rating (scale of 0 to 100 where 0 is no effect and 100 is complete control) (ryegrass, Italian; 125 g ai/ha): 60
Plant response rating (scale of 0 to 100 where 0 is no effect and 100 is complete control) (ryegrass, Italian; 250 g ai/ha): 80
Plant response rating (scale of 0 to 100 where 0 is no effect and 100 is complete control) (corn [5]; 31 g ai/ha): 25
Plant response rating (scale of 0 to 100 where 0 is no effect and 100 is complete control) (corn [5]; 62 g ai/ha): 20
Plant response rating (scale of 0 to 100 where 0 is no effect and 100 is complete control) (corn [5]; 125 g ai/ha): 25
Plant response rating (scale of 0 to 100 where 0 is no effect and 100 is complete control) (corn [5]; 250 g ai/ha): 50
Plant response rating (scale of 0 to 100 where 0 is no effect and 100 is complete control) (crabgrass, large; 31 g ai/ha): 35
Plant response rating (scale of 0 to 100 where 0 is no effect and 100 is complete control) (crabgrass, large; 62 g ai/ha): 60
Plant response rating (scale of 0 to 100 where 0 is no effect and 100 is complete control) (crabgrass, large; 125 g ai/ha): 70
Plant response rating (scale of 0 to 100 where 0 is no effect and 100 is complete control) (crabgrass, large; 250 g ai/ha): 80
Plant response rating (scale of 0 to 100 where 0 is no effect and 100 is complete control) (foxtail, giant [6]; 31 g ai/ha): 25
Plant response rating (scale of 0 to 100 where 0 is no effect and 100 is complete control) (foxtail, giant [6]; 62 g ai/ha): 40
Plant response rating (scale of 0 to 100 where 0 is no effect and 100 is complete control) (foxtail, giant [6]; 125 g ai/ha): 70
Plant response rating (scale of 0 to 100 where 0 is no effect and 100 is complete control) (foxtail, giant [6]; 250 g ai/ha): 85
Plant response rating (scale of 0 to 100 where 0 is no effect and 100 is complete control) (morningglory; 31 g ai/ha): 70
Plant response rating (scale of 0 to 100 where 0 is no effect and 100 is complete control) (morningglory; 62 g ai/ha): 95
Plant response rating (scale of 0 to 100 where 0 is no effect and 100 is complete control) (morningglory; 125 g ai/ha): 85
Plant response rating (scale of 0 to 100 where 0 is no effect and 100 is complete control) (morningglory; 250 g ai/ha): 95
Plant response rating (scale of 0 to 100 where 0 is no effect and 100 is complete control) (nutsedge, yellow; 31 g ai/ha): 20
Plant response rating (scale of 0 to 100 where 0 is no effect and 100 is complete control) (nutsedge, yellow; 62 g ai/ha): 10
Plant response rating (scale of 0 to 100 where 0 is no effect and 100 is complete control) (nutsedge, yellow; 125 g ai/ha): 30
Plant response rating (scale of 0 to 100 where 0 is no effect and 100 is complete control) (nutsedge, yellow; 250 g ai/ha): 35
Plant response rating (scale of 0 to 100 where 0 is no effect and 100 is complete control) (ragweed; 31 g ai/ha): 65
Plant response rating (scale of 0 to 100 where 0 is no effect and 100 is complete control) (ragweed; 62 g ai/ha): 75
Plant response rating (scale of 0 to 100 where 0 is no effect and 100 is complete control) (ragweed; 125 g ai/ha): 80
Plant response rating (scale of 0 to 100 where 0 is no effect and 100 is complete control) (ragweed; 250 g ai/ha): 85
Plant response rating (scale of 0 to 100 where 0 is no effect and 100 is complete control) (barnyardgrass [7]; 31 g ai/ha): 30
Plant response rating (scale of 0 to 100 where 0 is no effect and 100 is complete control) (barnyardgrass [7]; 62 g ai/ha): 45
Plant response rating (scale of 0 to 100 where 0 is no effect and 100 is complete control) (barnyardgrass [7]; 125 g ai/ha): 60
Plant response rating (scale of 0 to 100 where 0 is no effect and 100 is complete control) (barnyardgrass [7]; 250 g ai/ha): 85
Plant response rating (scale of 0 to 100 where 0 is no effect and 100 is complete control) (oilseed rape; Oilsee Rape, 250 g ai/ha): 98
Plant response rating (scale of 0 to 100 where 0 is no effect and 100 is complete control) (oilseed rape; Oilseed Rape, 31 g ai/ha): 80
Plant response rating (scale of 0 to 100 where 0 is no effect and 100 is complete control) (oilseed rape; Oilseed Rape, 62 g ai/ha): 90
Plant response rating (scale of 0 to 100 where 0 is no effect and 100 is complete control) (oilseed rape; Oilseed Rape, 125 g ai/ha): 80
Plant response rating (scale of 0 to 100 where 0 is no effect and 100 is complete control) (waterhemp; 31 g ai/ha): 98
Plant response rating (scale of 0 to 100 where 0 is no effect and 100 is complete control) (waterhemp; 62 g ai/ha): 98
Plant response rating (scale of 0 to 100 where 0 is no effect and 100 is complete control) (waterhemp; 125 g ai/ha): 95
Plant response rating (scale of 0 to 100 where 0 is no effect and 100 is complete control) (waterhemp; 250 g ai/ha): 98
Plant response rating (scale of 0 to 100 where 0 is no effect and 100 is complete control) (velvetleaf; 31 g ai/ha): 65
Plant response rating (scale of 0 to 100 where 0 is no effect and 100 is complete control) (velvetleaf; 62 g ai/ha): 75
Plant response rating (scale of 0 to 100 where 0 is no effect and 100 is complete control) (velvetleaf; 125 g ai/ha): 80
Plant response rating (scale of 0 to 100 where 0 is no effect and 100 is complete control) (velvetleaf; 250 g ai/ha): 85
Plant response rating (scale of 0 to 100 where 0 is no effect and 100 is complete control) (kochia; 31 g ai/ha): 90
Plant response rating (scale of 0 to 100 where 0 is no effect and 100 is complete control) (kochia; 62 g ai/ha): 90
Plant response rating (scale of 0 to 100 where 0 is no effect and 100 is complete control) (kochia; 125 g ai/ha): 90
Plant response rating (scale of 0 to 100 where 0 is no effect and 100 is complete control) (kochia; 250 g ai/ha): 90
